Each structure is given as a SMILES string.

This note sets out measurements from patent publication US11999727B2 (Tango Therapeutics, Inc., priority 2020, dated 2024).

The target of test [1] is T1, PRMT5 (Homo sapiens, UniProt O14744).
T1 construct: purchased Viva (custom protein)
In words: PRMT5 biochemical IC50 assay with no cofactor. The conditions noted are these: PRMT5, no cofactor; read-out: No Cofactor/rel IC50. An excerpt:
Table 1 indicates IC50 values (μM) against PRMT5 for exemplary compounds in the presence of SAM as cofactor, with no cofactor, and with MTA as cofactor, respectively (columns 4-6). […] Ki values can be calculated from the IC50 values as described in the Examples section. As detailed in the Examples section, for the assay performed in the presence of SAM, IC50=Ki×1.5 (Ki=IC50/1.5).

Test [2] deals with HAP1 MTAP-deleted cell line. Kind of test: Viability assay, MTAP-deleted cell line. The conditions noted are these: Homo sapiens, HAP1, viability IC50, MTAP-deleted cell line; read-out: HAP1 MTAP deleted viability. Format: cell-based. An excerpt:
Table 1 additionally indicates IC50 values in a viability assay for the MTAP-deleted cell line (column 10), indicating the effect of treatment with compound on cell survival.

The target of test [3] is T1, PRMT5. In words: PRMT5 biochemical IC50 assay with SAM as cofactor. As to conditions: PRMT5, SAM as cofactor; read-out: SAM IC50.
The subject of test [4] is HAP1 MTAP-intact cell line. Kind of test: SDMA in-cell western assay, HAP1 MTAP-intact. In kind it is cell-based. The conditions noted are these: Homo sapiens, HAP1, SDMA in-cell western, HAP1 MTAP-intact; read-out: MTAP HAP1 intact IC50. The method, boiled down:
(§1)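 Compounds were tested in HAP1 cells differing only in MTAP status (endogenous expression versus null). Cellular SDMA levels were then measured by in-cell western, giving an IC50 in each background.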

For test [5], the system named is HAP1 MTAP-deleted cell line. Kind of test: SDMA in-cell western assay, HAP1 MTAP-deleted. As to conditions: for IC50: Homo sapiens, HAP1, SDMA in-cell western, HAP1 MTAP-deleted, read-out: HAP 1 MTAP deleted IC50; for MTAP intact/deleted ratio: IC50 ratio HAP1 MTAP-intact / HAP1 MTAP-deleted, SDMA in-cell western. Format: cell-based. An outline of the steps:
as §1

The target of test [6] is T1, PRMT5. In words: PRMT5 biochemical IC50 assay with MTA as cofactor. As to conditions: PRMT5, MTA as cofactor; read-out: MTA IC50.

T1 sequence (O14744 whole entry): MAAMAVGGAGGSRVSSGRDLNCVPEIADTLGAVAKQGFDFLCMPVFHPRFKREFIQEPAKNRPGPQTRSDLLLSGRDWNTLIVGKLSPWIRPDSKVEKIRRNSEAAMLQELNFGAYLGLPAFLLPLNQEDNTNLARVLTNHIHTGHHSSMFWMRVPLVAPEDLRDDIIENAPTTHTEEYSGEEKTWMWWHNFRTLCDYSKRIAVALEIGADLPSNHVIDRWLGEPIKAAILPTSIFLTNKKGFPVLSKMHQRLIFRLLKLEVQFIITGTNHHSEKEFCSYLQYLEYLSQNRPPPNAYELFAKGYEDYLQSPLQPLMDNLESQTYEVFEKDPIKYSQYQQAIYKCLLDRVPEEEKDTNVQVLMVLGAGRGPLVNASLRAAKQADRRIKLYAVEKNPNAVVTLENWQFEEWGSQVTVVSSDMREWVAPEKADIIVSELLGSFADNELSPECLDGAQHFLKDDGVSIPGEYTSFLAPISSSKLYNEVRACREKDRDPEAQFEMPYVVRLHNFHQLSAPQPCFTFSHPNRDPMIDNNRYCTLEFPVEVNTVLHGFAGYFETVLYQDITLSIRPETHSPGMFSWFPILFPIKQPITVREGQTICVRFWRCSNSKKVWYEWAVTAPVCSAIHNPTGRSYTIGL
T1 sequence (Q9BQA1 whole entry partner): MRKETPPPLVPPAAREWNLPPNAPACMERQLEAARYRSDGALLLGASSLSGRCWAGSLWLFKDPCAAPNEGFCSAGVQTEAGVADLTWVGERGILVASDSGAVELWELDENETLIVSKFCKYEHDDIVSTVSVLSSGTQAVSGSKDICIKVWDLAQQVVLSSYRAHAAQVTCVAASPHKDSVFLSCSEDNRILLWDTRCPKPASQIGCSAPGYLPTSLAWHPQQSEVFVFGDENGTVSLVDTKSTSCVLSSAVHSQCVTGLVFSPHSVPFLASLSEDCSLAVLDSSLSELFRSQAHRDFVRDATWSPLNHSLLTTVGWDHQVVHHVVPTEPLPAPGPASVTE

`C[C@@H]1CCC[C@@H]2CN(C(=O)C(=O)Nc3cncc(C(N)=O)c3)CC[C@@H]21` (racemic) [Compound 536, 5-(2-(5-methyloctahydroisoquinolin-2(1H)-yl)-2-oxoacetamido)nicotinamide]: the IC50 on PRMT5 [1] was more than 500 nM; in test [2] it was more than 10000 nM; at PRMT5 [3], 50 to 500 nM; in test [4], more than 1000 nM; in test [5] it was 100 to 1000 nM; at PRMT5 [6] it was 50 to 500 nM. For the same compound, in test [5], the MTAP intact/deleted ratio entry is “A (an IC50 ratio greater than or equal to 10 fold)”.

Consider `C[C@@H]1CC[C@@H](c2ccc(F)c(O)c2)N(C(=O)C(=O)Nc2cncc(C(N)=O)c2)C1` (racemic) [Compound 540, 5-[[2-[(2R,5S)-2-(4-fluoro-3-hydroxy-phenyl)-5-methyl-1-piperidyl]-2-oxo-acetyl]amino]pyridine-3-carboxamide], for which the IC50 at PRMT5 [1] was 50 to 500 nM; in test [2] it was less than 1000 nM; at PRMT5 [3], 50 to 500 nM; in test [4] it was more than 1000 nM; in test [5] it was less than 100 nM; at PRMT5 [6] it was less than 50 nM. The MTAP intact/deleted ratio result in test [5] is on record as “A (an IC50 ratio greater than or equal to 10 fold)”.

Regarding `C[C@@H]1CN(C(=O)C(=O)Nc2cncc(C(N)=O)c2)C[C@@H]2CCCC[C@@H]21` (racemic) [Compound 541, 5-[[2-[(4S,4aR,8aR)-4-Methyl-3,4,4a,5,6,7,8,8a-octahydro-1H-isoquinolin-2-yl]-2-oxo-acetyl]amino]pyridine-3-carboxamide], the IC50 on PRMT5 [1] is more than 500 nM; in test [2], 1000 to 10000 nM; at PRMT5 [3] it was 50 to 500 nM; in test [4], more than 1000 nM; in test [5], 100 to 1000 nM; at PRMT5 [6], 50 to 500 nM. The MTAP intact/deleted ratio entry in test [5] was “A (an IC50 ratio greater than or equal to 10 fold)”.

As for `C[C@@H]1CN(C(=O)C(=O)Nc2cncc(C(N)=O)c2)C[C@H]2CCCC[C@H]21` (racemic) [Compound 542, 5-[[2-[(4S,4aS,8aS)-4-Methyl-3,4,4a,5,6,7,8,8a-octahydro-1H-isoquinolin-2-yl]-2-oxo-acetyl]amino]pyridine-3-carboxamide], the IC50 is more than 500 nM at PRMT5 [1]; more than 10000 nM in test [2]; 50 to 500 nM on PRMT5 [3]; more than 1000 nM in test [4]; more than 1000 nM in test [5]; 50 to 500 nM on PRMT5 [6]. Further, in test [5], the MTAP intact/deleted ratio entry is reported as “B (an IC50 ratio greater than or equal to 3 fold but lower than 10 fold)”.

As to `C[C@@H]1CN(C(=O)C(=O)Nc2cncc(C(N)=O)c2)C[C@H]2CCCC[C@@H]21` (racemic) [Compound 543, 5-[[2-[(4S,4aR,8aS)-4-Methyl-3,4,4a,5,6,7,8,8a-octahydro-1H-isoquinolin-2-yl]-2-oxo-acetyl]amino]pyridine-3-carboxamide], the IC50 on PRMT5 [1] was 50 to 500 nM; in test [2], 1000 to 10000 nM; at PRMT5 [3], 50 to 500 nM; in test [4], more than 1000 nM; in test [5], 100 to 1000 nM; on PRMT5 [6] it was 50 to 500 nM. Besides, the MTAP intact/deleted ratio result in test [5] is “A (an IC50 ratio greater than or equal to 10 fold)”.

`CC(C)c1cc([C@@H]2CC[C@@H](C)CN2C(=O)C(=O)Nc2cncc(C(N)=O)c2)ccc1O` (racemic) [Compound 552, 5-[[2-[(2S,5R)-2-(4-Hydroxy-3-isopropyl-phenyl)-5-methyl-1-piperidyl]-2-oxo-acetyl]amino]pyridine-3-carboxamide]: the IC50 was 50 to 500 nM on PRMT5 [1]; less than 1000 nM in test [2]; 50 to 500 nM at PRMT5 [3]; more than 1000 nM in test [4]; less than 100 nM in test [5]; less than 50 nM at PRMT5 [6]. Besides, the MTAP intact/deleted ratio result in test [5] is “A (an IC50 ratio greater than or equal to 10 fold)”.
